What was measured:
Assay type in all cases: in vivo
[1] = test system: Amaranthus retoflexus (AMARE); assay: Pre-emergence Test, AMARE; settings: 1000 g/ha, evaluated after 13 days
[2] = test system: Ipornoea hederacea (IPOHE); assay: Pre-emergence Test, IPOHE; settings: 1000 g/ha, evaluated after 13 days
[3] = test system: Echinochloa crus-galli (ECHCG); assay: Pre-emergence Test, ECHCG; settings: 1000 g/ha, evaluated after 13 days
Setaria faberi (SETFA) [4] = assay: Pre-emergence Test, SETFA; settings: 1000 g/ha, evaluated after 13 days
ZEAMX [5] = assay: Pre-emergence Test, ZEAMX; settings: 1000 g/ha, evaluated after 13 days
ABUTH [6] = assay: Pre-emergence Test, ABUTH; settings: 1000 g/ha, evaluated after 13 days
[7] = test system: Amaranthus retoflexus (AMARE); assay: Post-emergence Test, AMARE; settings: sprayed after 8 days cultivation, 1000 g/ha, evaluated after 13 days
Experimental: (§1) Seeds of a variety of test species are sown in standard soil in pots (Amaranthus retoflexus (AMARE), Solarium nigrum (SOLNI), Setaria faberi (SETFA), Lolium perenne (LOLPE), Echinochloa crus-galli (ECHCG), Ipornoea hederacea (IPOHE)). After 8 days cultivation under controlled conditions in a glasshouse (at 24° C./16° C., day/night; 14 hours light; 65% humidity), the plants are sprayed with an aqueous spray solution derived from the formulation of the technical active ingredient in acetone/water (50:50) solution containing 0.5% Tween 20 (polyoxyethylene sorbitan monolaurate, CAS RN 9005-64-5). Compounds are applied at 1000 g/ha unless otherwise stated. The test plants are then grown in a glasshouse under controlled conditions in a glasshouse (at 24° C./16° C., day/night; 14 hours light; 65% humidity) and watered twice daily. After 13 days the test is evaluated for the percentage damage caused to the plant. The biological activities are shown in the following table on a five-point scale (5=81-100%; 4=61-80%; 3=41-60%; 2=21-40%; 1=10-20%; 0=0%; −=not tested).

[8] = test system: Ipornoea hederacea (IPOHE); assay: Post-emergence Test, IPOHE; settings: sprayed after 8 days cultivation, 1000 g/ha, evaluated after 13 days
Experimental: as §1

[9] = test system: Echinochloa crus-galli (ECHCG); assay: Post-emergence Test, ECHCG; settings: sprayed after 8 days cultivation, 1000 g/ha, evaluated after 13 days
Experimental: as §1

Setaria faberi (SETFA) [10] = assay: Post-emergence Test, SETFA; settings: sprayed after 8 days cultivation, 1000 g/ha, evaluated after 13 days
Experimental: as §1

ZEAMX [11] = assay: Post-emergence Test, ZEAMX; settings: sprayed after 8 days cultivation, 1000 g/ha, evaluated after 13 days
Experimental: [The procedure below names another target; the source lists this target under the same test.] as §1

ABUTH [12] = assay: Post-emergence Test, ABUTH; settings: sprayed after 8 days cultivation, 1000 g/ha, evaluated after 13 days
Experimental: [The procedure below names another target; the source lists this target under the same test.] as §1

Structure (SMILES): O=C(O)c1nn(-c2ccc(OC(F)(F)F)cc2)c2cccc(N3CCCCC3)c2c1=O [Compound P24, 4-oxo-5-(1-piperidyl)-1-[4-(trifluoromethoxy)phenyl] cinnoline-3-carboxylic acid]
- percentage damage caused to the plant, AMARE [1]: 0 (0=0%)
- percentage damage caused to the plant, IPOHE [2]: 0 (0=0%)
- percentage damage caused to the plant, ECHCG [3]: 1 (1=10-20%)
- percentage damage caused to the plant, SETFA (Setaria faberi (SETFA) [4]): 0 (0=0%)
- percentage damage caused to the plant, ZEAMX (ZEAMX [5]): 0 (0=0%)
- percentage damage caused to the plant, ABUTH (ABUTH [6]): 1 (1=10-20%)
- percentage damage caused to the plant, AMARE [7]: 0 (0=0%)
- percentage damage caused to the plant, IPOHE [8]: 0 (0=0%)
- percentage damage caused to the plant, ECHCG [9]: 0 (0=0%)
- percentage damage caused to the plant, SETFA (Setaria faberi (SETFA) [10]): 0 (0=0%)
- percentage damage caused to the plant, ZEAMX (ZEAMX [11]): 0 (0=0%)
- percentage damage caused to the plant, ABUTH (ABUTH [12]): 1 (1=10-20%)

Structure (SMILES): O=C(O)c1nn(-c2ccc(OC(F)(F)F)cc2)c2cccc(N3CCOCC3)c2c1=O [Compound P25, 5-morpholino-4-oxo-1-[4-(trifluoromethoxy)phenyl] cinnoline-3-carboxylic acid]
- percentage damage caused to the plant, AMARE [1]: 0 (0=0%)
- percentage damage caused to the plant, IPOHE [2]: 0 (0=0%)
- percentage damage caused to the plant, ECHCG [3]: 0 (0=0%)
- percentage damage caused to the plant, SETFA (Setaria faberi (SETFA) [4]): 0 (0=0%)
- percentage damage caused to the plant, ZEAMX (ZEAMX [5]): 0 (0=0%)
- percentage damage caused to the plant, ABUTH (ABUTH [6]): 0 (0=0%)
- percentage damage caused to the plant, AMARE [7]: 0 (0=0%)
- percentage damage caused to the plant, IPOHE [8]: 0 (0=0%)
- percentage damage caused to the plant, ECHCG [9]: 0 (0=0%)
- percentage damage caused to the plant, SETFA (Setaria faberi (SETFA) [10]): 0 (0=0%)
- percentage damage caused to the plant, ZEAMX (ZEAMX [11]): 0 (0=0%)
- percentage damage caused to the plant, ABUTH (ABUTH [12]): 0 (0=0%)

Structure (SMILES): CCOC(=O)c1nn(-c2ccc(OC(F)(F)F)cc2)c2cccc(N3CCOCC3)c2c1=O [Compound P26, ethyl 5-morpholino-4-oxo-1-[4-(trifluoromethoxy)phenyl] cinnoline-3-carboxylate]
- percentage damage caused to the plant, AMARE [1]: 0 (0=0%)
- percentage damage caused to the plant, IPOHE [2]: 0 (0=0%)
- percentage damage caused to the plant, ECHCG [3]: 0 (0=0%)
- percentage damage caused to the plant, SETFA (Setaria faberi (SETFA) [4]): 0 (0=0%)
- percentage damage caused to the plant, ZEAMX (ZEAMX [5]): 0 (0=0%)
- percentage damage caused to the plant, ABUTH (ABUTH [6]): 0 (0=0%)
- percentage damage caused to the plant, AMARE [7]: 0 (0=0%)
- percentage damage caused to the plant, IPOHE [8]: 0 (0=0%)
- percentage damage caused to the plant, ECHCG [9]: 1 (1=10-20%)
- percentage damage caused to the plant, SETFA (Setaria faberi (SETFA) [10]): 0 (0=0%)
- percentage damage caused to the plant, ZEAMX (ZEAMX [11]): 0 (0=0%)
- percentage damage caused to the plant, ABUTH (ABUTH [12]): 0 (0=0%)

Structure (SMILES): CCOC(=O)c1nn(-c2ccc(OC(F)(F)F)cc2)c2cccc(N3CCCCC3)c2c1=O [Compound P27, ethyl 4-oxo-5-(1-piperidyl)-1-[4-(trifluoromethoxy)phenyl] cinnoline-3-carboxylate]
- percentage damage caused to the plant, AMARE [1]: 0 (0=0%)
- percentage damage caused to the plant, IPOHE [2]: 0 (0=0%)
- percentage damage caused to the plant, ECHCG [3]: 0 (0=0%)
- percentage damage caused to the plant, SETFA (Setaria faberi (SETFA) [4]): 0 (0=0%)
- percentage damage caused to the plant, ZEAMX (ZEAMX [5]): 0 (0=0%)
- percentage damage caused to the plant, ABUTH (ABUTH [6]): 0 (0=0%)
- percentage damage caused to the plant, AMARE [7]: 0 (0=0%)
- percentage damage caused to the plant, IPOHE [8]: 0 (0=0%)
- percentage damage caused to the plant, ECHCG [9]: 0 (0=0%)
- percentage damage caused to the plant, SETFA (Setaria faberi (SETFA) [10]): 0 (0=0%)
- percentage damage caused to the plant, ZEAMX (ZEAMX [11]): 0 (0=0%)
- percentage damage caused to the plant, ABUTH (ABUTH [12]): 0 (0=0%)

Structure (SMILES): CCOC(=O)c1nn(-c2ccc(OC(F)(F)F)cc2)c2cccc(N3CCCC3)c2c1=O [Compound P28, ethyl 4-oxo-5-pyrrolidin-1-yl-1-[4-(trifluoromethoxy)phenyl] cinnoline-3-carboxylate]
- percentage damage caused to the plant, AMARE [1]: 0 (0=0%)
- percentage damage caused to the plant, IPOHE [2]: 0 (0=0%)
- percentage damage caused to the plant, ECHCG [3]: 0 (0=0%)
- percentage damage caused to the plant, SETFA (Setaria faberi (SETFA) [4]): 0 (0=0%)
- percentage damage caused to the plant, ZEAMX (ZEAMX [5]): 0 (0=0%)
- percentage damage caused to the plant, ABUTH (ABUTH [6]): 0 (0=0%)
- percentage damage caused to the plant, AMARE [7]: 0 (0=0%)
- percentage damage caused to the plant, IPOHE [8]: 0 (0=0%)
- percentage damage caused to the plant, ECHCG [9]: 0 (0=0%)
- percentage damage caused to the plant, SETFA (Setaria faberi (SETFA) [10]): 0 (0=0%)
- percentage damage caused to the plant, ZEAMX (ZEAMX [11]): 0 (0=0%)
- percentage damage caused to the plant, ABUTH (ABUTH [12]): 0 (0=0%)

Source: patent US12649722B2, “Herbicidal cinnoline derivatives” (SYNGENTA CROP PROTECTION AG, priority 2020, dated 2026)
